We go through 16 compounds from ChEMBL document CHEMBL1140531, “New functional assay of P-glycoprotein activity using Hoechst 33342” (Bioorg Med Chem, 2007).

Broadly, the Hill coefficient is a measure of the steepness of the concentration-response curve. As a reminder, the IC50 is the concentration at which inhibition is half-maximal.

The target of data set [1] is T1, ATP-dependent translocase ABCB1 (Homo sapiens, UniProt P08183). Put plainly: Inhibition of P-glycoprotein expressed in MDCK-MDR1 cells by calcein AM assay. The format is cell-based.
The target of data set [2] is T1, ATP-dependent translocase ABCB1. Put plainly: Inhibition of P-glycoprotein expressed in A2780/ADR cells by calcein AM assay. Format: cell-based.
Data set [3] shares this target. Briefly: Inhibition of P-glycoprotein by Hoechst assay.
The nature of data set [4]: Cytotoxicity against human A2780/ADR cells after 72 hrs by MTT assay. Format: functional, cell-based. Background: Tetrazolium dyes change colour on reduction, which living cells bring about.
In a further data set the test system is A2780. Briefly: Cytotoxicity against human A2780 cells after 72 hrs by MTT assay. The settings on record: A2780, 72 h. The format is functional, cell-based.

T1 sequence (P08183 whole entry): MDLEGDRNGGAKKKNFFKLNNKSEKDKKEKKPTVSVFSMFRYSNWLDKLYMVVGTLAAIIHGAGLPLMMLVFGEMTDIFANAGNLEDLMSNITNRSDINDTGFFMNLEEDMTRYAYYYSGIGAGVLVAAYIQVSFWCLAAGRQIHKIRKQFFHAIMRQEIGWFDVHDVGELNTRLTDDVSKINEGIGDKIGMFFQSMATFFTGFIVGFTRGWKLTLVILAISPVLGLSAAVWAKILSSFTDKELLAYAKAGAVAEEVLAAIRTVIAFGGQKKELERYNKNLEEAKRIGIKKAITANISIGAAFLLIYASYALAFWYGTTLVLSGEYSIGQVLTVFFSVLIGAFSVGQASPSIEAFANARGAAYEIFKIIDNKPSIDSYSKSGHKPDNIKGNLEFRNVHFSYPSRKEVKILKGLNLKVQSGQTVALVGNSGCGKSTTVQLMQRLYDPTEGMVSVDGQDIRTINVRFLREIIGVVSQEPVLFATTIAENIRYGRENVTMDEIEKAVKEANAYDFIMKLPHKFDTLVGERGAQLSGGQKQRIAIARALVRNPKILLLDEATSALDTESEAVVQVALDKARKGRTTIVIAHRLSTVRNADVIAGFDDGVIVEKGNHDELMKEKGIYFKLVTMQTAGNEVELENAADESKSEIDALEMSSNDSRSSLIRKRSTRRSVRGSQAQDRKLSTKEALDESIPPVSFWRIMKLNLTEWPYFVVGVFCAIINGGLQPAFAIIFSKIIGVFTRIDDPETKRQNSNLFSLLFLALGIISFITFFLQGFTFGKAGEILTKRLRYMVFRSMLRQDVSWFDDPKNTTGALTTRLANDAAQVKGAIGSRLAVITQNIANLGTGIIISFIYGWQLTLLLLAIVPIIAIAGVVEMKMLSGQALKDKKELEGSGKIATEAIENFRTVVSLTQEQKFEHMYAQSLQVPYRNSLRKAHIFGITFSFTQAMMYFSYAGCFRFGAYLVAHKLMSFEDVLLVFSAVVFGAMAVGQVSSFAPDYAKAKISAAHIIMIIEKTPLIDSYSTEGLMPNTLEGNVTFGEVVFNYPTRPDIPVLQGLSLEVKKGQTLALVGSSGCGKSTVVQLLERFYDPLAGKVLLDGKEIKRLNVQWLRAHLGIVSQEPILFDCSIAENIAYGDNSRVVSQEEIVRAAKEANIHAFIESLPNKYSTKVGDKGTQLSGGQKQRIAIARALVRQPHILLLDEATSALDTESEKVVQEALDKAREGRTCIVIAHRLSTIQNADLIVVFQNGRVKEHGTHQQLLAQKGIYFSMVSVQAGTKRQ

Turning to `COc1cc2c(cc1OC)CN(CCc1ccc(NC(=O)c3ccccc3NC(=O)c3ccccc3)cc1)CC2`, the Hill coefficient in data set [1] is on record as 2.01. In addition, the half-maximal inhibitory concentration (IC50) in data set [2] is 851 nM; in data set [3], 513 nM.
For the compound `COc1ccc(C(=O)Nc2ccccc2C(=O)Nc2ccc(CCN3CCc4cc(OC)c(OC)cc4C3)cc2)cc1OC`, in data set [1], the Hill coefficient is 2.89. Moreover, the IC50 in data set [2] was 339 nM; in data set [3], 331 nM.
With `CC(=O)[C@H]1CC[C@H]2[C@@H]3CCC4=CC(=O)CC[C@]4(C)[C@H]3CC[C@]12C` [PROGESTERONE], the Hill coefficient in data set [1] is on record as 1.31.
Regarding `COc1ccc([C@@H]2Sc3ccccc3N(CCN(C)C)C(=O)[C@@H]2OC(C)=O)cc1` [DILTIAZEM], the Hill coefficient in data set [1] is given as 1.15.
Turning to `COC(=O)[C@H]1[C@H]2C[C@@H]3c4[nH]c5cc(OC)ccc5c4CCN3C[C@H]2C[C@@H](OC(=O)c2cc(OC)c(OC)c(OC)c2)[C@@H]1OC` [RESERPINE], in data set [1], the Hill coefficient was 1.88. Besides, the IC50 in data set [2] was 3240 nM; in data set [3], 3020 nM.
In the case of `CC(=O)O[C@@]12CO[C@@H]1C[C@H](O)[C@@]1(C)C(=O)[C@H](O)C3=C(C)[C@@H](OC(=O)[C@H](O)[C@@H](NC(=O)OC(C)(C)C)c4ccccc4)C[C@@](O)([C@@H](OC(=O)c4ccccc4)[C@H]21)C3(C)C` [DOCETAXEL], the half-maximal inhibitory concentration (IC50) in data set [4] was 87.1 nM; with A2780 it was 4.9 nM.
On the same counts, the results for `COc1cc2c(c(OC)c1OC)-c1ccc(OC)c(=O)cc1[C@@H](NC(C)=O)CC2` [COLCHICINE] are 372 nM and 22.9 nM.
Turning to `CC[C@]1(O)C[C@@H]2CN(CCc3c([nH]c4ccccc34)[C@@](C(=O)OC)(c3cc4c(cc3OC)N(C)[C@H]3[C@@](O)(C(=O)OC)[C@H](OC(C)=O)[C@]5(CC)C=CCN6CC[C@]43[C@@H]65)C2)C1` [VINBLASTINE], in data set [1], the Hill coefficient was 2.06. Moreover, the values for the concentration for half-maximal inhibition (IC50) (in data set [4]; in the data set on A2780) were 2820 nM and 61.7 nM, respectively.
As to `COc1cccc2c1C(=O)c1c(O)c3c(c(O)c1C2=O)C[C@@](O)(C(=O)CO)C[C@@H]3O[C@H]1C[C@H](N)[C@H](O)[C@H](C)O1` [DOXORUBICIN], the values for the IC50 (in data set [4]; in the data set with A2780) were 13500 nM and 93.3 nM, respectively.
Consider `O=C(Nc1ccc(CCN2CCc3ccccc3C2)cc1)Nc1ccccc1NC(=O)c1cnc2ccccc2c1`, for which, in data set [1], the Hill coefficient is reported as 2.6. Besides, the IC50 in data set [2] was 813 nM.
Turning to `CCOc1ccc(-c2nc3cc(-c4nc5cc(N6CCN(C)CC6)ccc5[nH]4)ccc3[nH]2)cc1`, the IC50 in data set [4] was 38000 nM; with A2780, 1910 nM.
As for `O=C(Nc1ccccc1C(=O)Nc1ccc(CCN2CCc3ccccc3C2)cc1)c1cnc2ccccc2c1`, the Hill coefficient in data set [1] is reported as 2.42. Also, the IC50 is 490 nM in data set [2] and 355 nM in data set [3].
On to `COC(=O)C1=C(C)NC(C)=C(C(=O)OCCN(C)Cc2ccccc2)C1c1cccc([N+](=O)[O-])c1` (stereo not drawn) [NICARDIPINE], for which the Hill coefficient in data set [1] is listed as 2.44.
Still for that read-out and setting: the same measure for `Cc1ccc(NC(=O)c2ccc(CN3CCN(C)CC3)cc2)cc1Nc1nccc(-c2cccnc2)n1` [IMATINIB]: 1.18.
For `COc1cccc2c1C(=O)c1c(O)c3c(c(O)c1C2=O)C[C@@](O)(C(C)=O)C[C@@H]3O[C@H]1C[C@H](N)[C@H](O)[C@H](C)O1` [DAUNORUBICIN], the results for the half-inhibitory concentration (IC50) (in data set [4]; in the data set with A2780) were 18600 nM and 117 nM, respectively.
Taken in the same sequence, the figures for `COC(=O)c1ccccc1-c1c2ccc(=N)cc-2oc2cc(N)ccc12` [RHODAMINE123] were 123000 nM and 1910 nM.
